# Experimental data published in publication PMC9224258, “Zinc Coordination Compounds with Benzimidazole Derivatives: Synthesis, Structure, Antimicrobial Activity and Potential Anticancer Application” (International Journal of Molecular Sciences, 2022).
# Like-named read-outs stand apart in the source and are kept apart here.
# Columns and labels:
# [1] = tested on: S. typhimurium ATCC 14028; assay: micro-dilution broth MIC; format: cell-based, Salmonella Typhimurium; conditions: Gram-negative
# Protocol: (§1) The cytotoxic effect of the compounds was evaluated using glioblastoma (T98G), neuroblastoma (SK-N-AS) and lung adenocarcinoma (A549) cell lines and human normal skin fibroblasts (CCD-1059Sk). T98G and SK-N-AS cells were cultured in DMEM, high glucose; A549 cells were cultured in DMEM/F12; and CCD-1059Sk cells were cultured in MEM. All media were supplemented with 10% FBS, 100 U/mL of penicillin and […] of streptomycin (PenStrep). Cells were incubated at 37 °C in a humidified atmosphere of 5% CO2. Stock solutions were prepared by dissolving the compounds in sterile dimethyl sulfoxide (DMSO) to obtain the concentration of 50 mg/mL. The cells were seeded into 96-well sterile plates (Nunc) at a density of 1 × 10^5 cells/mL. After 24 h of incubation, the medium was removed from each well, and then cells were incubated for the next 24 h with different concentrations of the tested compounds (1–100 µg/mL) in respective medium containing 2% FBS. Cytotoxicity of the compounds was evaluated using the MTT assay, which is based on the conversion of 3-(4,5-dimethylthiazol-2-yl)-2,5-diphenyltetrazolium bromide (MTT) into dark-blue formazan crystals. Briefly, after 24 h incubation of cells with varying concentrations of the tested compounds, all culture media were removed from the plates. Cells were washed with PBS, and then 100 µL of medium containing 10% MTT solution (5 mg/mL) was added to each well. After 3 h incubation, 100 µL (per well) of 10% SDS buffer solution was added to solubilize formazan crystals. After overnight incubation, the absorbance was measured at 570 nm using a microplate reader (Epoch, BioTek Instruments). Experiments were repeated twice, and the measurements in each experiment were run in triplicate. The viability of the investigated cells was expressed as a percentage of the viability of the untreated cells, and the results were transformed into IC50 values (expressed as mean ± SD). […] The complexes were screened for antibacterial and antifungal activities by micro-dilution broth method using Mueller–Hinton broth for growth of bacteria or Mueller–Hinton broth with 2% glucose for growth of fungi. Minimal inhibitory concentrations (MICs) of the tested derivatives were evaluated for the panel of the reference microorganisms from the American Type Culture Collection (ATCC), including Gram-negative bacteria (Escherichia coli ATCC 25922, Salmonella Typhimurium ATCC14028, Klebsiella pneumoniae ATCC 13883, Pseudomonas aeruginosa ATCC 9027, Proteus mirabilis ATCC 12453), Gram-positive bacteria (Staphylococcus aureus ATCC 25923, Staphylococcus epidermidis ATCC 12228, Micrococcus luteus ATCC 10240, Enterococcus faecalis ATCC 29212, Bacillus subtilis ATCC 6633, Bacillus cereus ATCC 10876) and fungi (Candida albicans ATCC 10231, Candida parapsilosis ATCC 22019, C. glabrata ATCC 90030).
# [2] = tested on: E. coli ATCC 25922; assay: micro-dilution broth MIC; format: cell-based, Escherichia coli
# Protocol: as §1
# [3] = tested on: P. mirabilis ATCC 12453; assay: micro-dilution broth MIC; format: cell-based, Proteus mirabilis
# Protocol: as §1
# [4] = tested on: K. pneumoniae ATCC 13883; assay: micro-dilution broth MIC; format: cell-based, Klebsiella pneumoniae
# Protocol: as §1
# [5] = tested on: P. aeruginosa ATCC 9027; assay: micro-dilution broth MIC; format: cell-based, Pseudomonas aeruginosa
# Protocol: as §1
# [6] = tested on: glioblastoma (T98G) cell line; assay: MTT cytotoxicity assay, T98G; format: cell-based; conditions: MTT assay after 24 h incubation; for IC50: Homo sapiens, T98G, read-out: IC50 ± SD, T98G
# Protocol: as §1
# [7] = tested on: neuroblastoma (SK-N-AS) cell line; assay: MTT cytotoxicity assay, SK-N-AS; format: cell-based, human; conditions: MTT assay after 24 h incubation; for IC50: Homo sapiens, SK-N-AS, read-out: IC50 ± SD, SK-N-AS
# Protocol: as §1
# [8] = tested on: lung adenocarcinoma (A549) cell line; assay: MTT cytotoxicity assay, A549; format: cell-based, human; conditions: MTT assay after 24 h incubation; for IC50: Homo sapiens, A549, read-out: IC50 ± SD, A549
# Protocol: as §1
# [9] = tested on: human normal skin fibroblasts (CCD-1059Sk); assay: MTT cytotoxicity assay, normal fibroblasts; format: cell-based; conditions: MTT assay after 24 h incubation, normal cells; for IC50: Homo sapiens, CCD-1059Sk, read-out: IC50 ± SD, CCD-1059-Sk
# Protocol: as §1
# [10] = tested on: S. aureus ATCC 25923; assay: micro-dilution broth MIC; format: cell-based, Staphylococcus aureus
# Protocol: as §1
# [11] = tested on: S. epidermidis ATCC 12228; assay: micro-dilution broth MIC; format: cell-based, Staphylococcus epidermidis
# Protocol: as §1
# [12] = tested on: M. luteus ATCC 10240; assay: micro-dilution broth MIC; format: cell-based, Micrococcus luteus
# Protocol: as §1
# [13] = tested on: E. faecalis ATCC 29212; assay: micro-dilution broth MIC; format: cell-based, Enterococcus faecalis
# Protocol: as §1
# [14] = tested on: B. subtilis ATCC 6633; assay: micro-dilution broth MIC; format: cell-based, Bacillus subtilis
# Protocol: as §1
# [15] = tested on: B. cereus ATCC 10876; assay: micro-dilution broth MIC; format: cell-based, Bacillus cereus
# Protocol: as §1
# [16] = tested on: C. glabrata ATCC 2091; assay: micro-dilution broth MIC; format: cell-based
# [17] = tested on: C. albicans ATCC 102231; assay: micro-dilution broth MIC; format: cell-based, Candida albicans
# Protocol: as §1
# [18] = tested on: C. parapsilosis ATCC 22019; assay: micro-dilution broth MIC; format: cell-based, Candida parapsilosis
# Protocol: as §1
# [19] = Salmonella enterica, read-out: MIC
# [20] = Escherichia coli, ATCC25922, Gram-negative, read-out: MIC
# [21] = Proteus mirabilis, ATCC12453, Gram-negative, read-out: MIC
# [22] = Klebsiella pneumoniae, ATCC13883, Gram-negative, read-out: MIC
# [23] = Pseudomonas aeruginosa, ATCC9027, Gram-negative, read-out: MIC
# [24] = S. aureus ATCC 25923, Gram-positive
# [25] = S. epidermidis ATCC 12228, Gram-positive
# [26] = M. luteus ATCC 10240, Gram-positive
# [27] = E. faecalis ATCC 29212, Gram-positive
# [28] = B. subtilis ATCC 6633, Gram-positive
# [29] = B. cereus ATCC 10876, Gram-positive
# [30] = Staphylococcus aureus, ATCC25923, S. aureus ATCC 25923, Gram-positive, read-out: MIC
# [31] = Staphylococcus epidermidis, ATCC12228, S. epidermidis ATCC 12228, Gram-positive, read-out: MIC
# [32] = Micrococcus luteus, ATCC10240, M. luteus ATCC 10240, Gram-positive, read-out: MIC
# [33] = Enterococcus faecalis, ATCC29212, E. faecalis ATCC 29212, Gram-positive, read-out: MIC
# [34] = Bacillus subtilis, ATCC6633, B. subtilis ATCC 6633, Gram-positive, read-out: MIC
# [35] = Bacillus cereus, ATCC10876, B. cereus ATCC 10876, Gram-positive, read-out: MIC
# [36] = Nakaseomyces glabratus, ATCC2091, yeast, read-out: MIC
# [37] = Candida albicans, ATCC102231, yeast, read-out: MIC
# [38] = Lodderomyces parapsilosis, ATCC22019, yeast, read-out: MIC
compound,measurement,setting,value
"O=C(O)c1cn(C2CC2)c2cc(N3CCNCC3)c(F)cc2c1=O [Cip, ciprofloxacin, reference compound]",MIC,[1]; [19],0.061 µg/mL
same,MIC,[2]; [20],0.015 µg/mL
same,MIC,[3]; [21],0.03 µg/mL
same,MIC,[4]; [22],0.12 µg/mL
same,MIC,[5]; [23],0.49 µg/mL
[Cl][Zn][Cl].[Cl][Zn][Cl].c1cnc2[nH]c(-c3ccncc3)nc2c1.c1cnc2[nH]c(-c3ccncc3)nc2c1 [Complex C2],"IC50 ± SD, T98G",[6],24.29 ± 0.11 µg/mL
same,"IC50 ± SD, SK-N-AS",[7],33.72 ± 0.39 µg/mL
same,"IC50 ± SD, A549",[8],34.44 ± 0.75 µg/mL
same,"IC50 ± SD, CCD-1059-Sk",[9],27.27 ± 1.05 µg/mL
same,MIC,[10]; [24],500 µg/mL
same,MIC,[11]; [25],500 µg/mL
same,MIC,[12]; [26],250 µg/mL
same,MIC,[13]; [27],1000 µg/mL
same,MIC,[14]; [28],500 µg/mL
same,MIC,[15]; [29],500 µg/mL
same,MIC,[1],1000 µg/mL
same,MIC,[2]; Gram-negative,1000 µg/mL
same,MIC,[3]; Gram-negative,1000 µg/mL
same,MIC,[4]; Gram-negative,1000 µg/mL
same,MIC,[5]; Gram-negative,>1000 µg/mL
same,MIC,[16]; yeast,>1000 µg/mL
same,MIC,[17]; yeast,1000 µg/mL
same,MIC,[18]; yeast,>1000 µg/mL
[Cl][Zn-2]1([Cl])[n+]2cccc(c2)-c2nc3c(ccc[n+]3[Zn-2]([Cl])([Cl])[n+]3cccc(c3)-c3nc4c(ccc[n+]41)[nH]3)[nH]2 [Complex C3],"IC50 ± SD, T98G",[6],46.54 ± 1.86 µg/mL
same,"IC50 ± SD, SK-N-AS",[7],41.60 ± 1.93 µg/mL
same,"IC50 ± SD, A549",[8],41.34 ± 2.17 µg/mL
same,"IC50 ± SD, CCD-1059-Sk",[9],30.84 ± 1.11 µg/mL
same,MIC,[10]; [24],1000 µg/mL
same,MIC,[11]; [25],1000 µg/mL
same,MIC,[12]; [26],500 µg/mL
same,MIC,[13]; [27],>1000 µg/mL
same,MIC,[14]; [28],>1000 µg/mL
same,MIC,[15]; [29],>1000 µg/mL
same,MIC,[1],>1000 µg/mL
same,MIC,[2]; Gram-negative,>1000 µg/mL
same,MIC,[3]; Gram-negative,>1000 µg/mL
same,MIC,[4]; Gram-negative,>1000 µg/mL
same,MIC,[5]; Gram-negative,>1000 µg/mL
same,MIC,[16]; yeast,>1000 µg/mL
same,MIC,[17]; yeast,>1000 µg/mL
same,MIC,[18]; yeast,>1000 µg/mL
c1cc(-c2nc3ccncc3[nH]2)ccn1 [Complex L1],IC50,[6],41.2 ± 2.3 µg/mL
same,IC50,[7],> 100 µg/mL
same,IC50,[8],> 100 µg/mL
same,IC50,[9],> 100 µg/mL
same,MIC,[10]; [30],> 1000 µg/mL
same,MIC,[11]; [31],> 1000 µg/mL
same,MIC,[12]; [32],500 µg/mL
same,MIC,[13]; [33],> 1000 µg/mL
same,MIC,[14]; [34],> 1000 µg/mL
same,MIC,[15]; [35],> 1000 µg/mL
same,MIC,[1]; [19],> 1000 µg/mL
same,MIC,[2]; [20],> 1000 µg/mL
same,MIC,[3]; [21],> 1000 µg/mL
same,MIC,[4]; [22],> 1000 µg/mL
same,MIC,[5]; [23],> 1000 µg/mL
same,MIC,[16]; [36],> 1000 µg/mL
same,MIC,[17]; [37],> 1000 µg/mL
same,MIC,[18]; [38],> 1000 µg/mL
c1cnc2[nH]c(-c3ccncc3)nc2c1 [Complex L2],IC50,[6],35 ± 1.44 µg/mL
same,IC50,[7],81.3 ± 3.31 µg/mL
same,IC50,[8],43.1 ± 2.17 µg/mL
same,IC50,[9],> 100 µg/mL
same,MIC,[10]; [30],1000 µg/mL
same,MIC,[11]; [31],1000 µg/mL
same,MIC,[12]; [32],250 µg/mL
same,MIC,[13]; [33],1000 µg/mL
same,MIC,[14]; [34],500 µg/mL
same,MIC,[15]; [35],250 µg/mL
same,MIC,[1]; [19],1000 µg/mL
same,MIC,[2]; [20],1000 µg/mL
same,MIC,[3]; [21],1000 µg/mL
same,MIC,[4]; [22],> 1000 µg/mL
same,MIC,[5]; [23],> 1000 µg/mL
same,MIC,[16]; [36],> 1000 µg/mL
same,MIC,[17]; [37],1000 µg/mL
same,MIC,[18]; [38],> 1000 µg/mL
"C[C@@H]1[C@H](O)[C@@H](C)/C=C/C=C/CC/C=C/C=C/C=C/C=C/C(O[C@H]2O[C@H](C)[C@@H](O)[C@H](N)[C@@H]2O)CC2O[C@](O)(CC(O)C(O)CCC(O)CC(O)CC(O)CC(=O)O[C@H]1C)CC(O)C2C(=O)O (some centres unmarked) [Nys, nystatin, reference compound]",MIC,[16]; yeast,0.48 µg/mL
same,MIC,[17]; yeast,0.24 µg/mL
same,MIC,[18]; yeast,0.24 µg/mL
"CN[C@H](CC(C)C)C(=O)N[C@H]1C(=O)N[C@@H](CC(N)=O)C(=O)N[C@H]2C(=O)N[C@H]3C(=O)N[C@H](C(=O)N[C@H](C(=O)O)c4cc(O)cc(O)c4-c4cc3ccc4O)[C@H](O)c3ccc(c(Cl)c3)Oc3cc2cc(c3O[C@@H]2O[C@H](CO)[C@@H](O)[C@H](O)[C@H]2O[C@H]2C[C@](C)(N)[C@H](O)[C@H](C)O2)Oc2ccc(cc2Cl)[C@H]1O [Van, Vancomycin, reference compound]",MIC,"[10]; Staphylococcus aureus, ATCC25923",0.98 µg/mL
same,MIC,"[11]; Staphylococcus epidermidis, ATCC12228",0.98 µg/mL
same,MIC,"[12]; Micrococcus luteus, ATCC10240",0.12 µg/mL
same,MIC,"[13]; Enterococcus faecalis, ATCC29212",1.95 µg/mL
same,MIC,"[14]; Bacillus subtilis, ATCC6633",0.24 µg/mL
same,MIC,"[15]; Bacillus cereus, ATCC10876",0.98 µg/mL
